{"source": "patent US20180344855A1", "about": "“Stable Anti-inflammatory Solutions for Injection” (Omeros Corporation, priority 2011, published 2018)", "key": {"COX": {"tested_on": "COX", "details": "non-selective COX assay; cited from earlier work"}, "[1]": {"test": "One-liter scale stability study with or without Na2 EDTA, N2 overlay or sparge (Example 8)", "assay_type": "physicochemical", "details": "over six months"}, "[2]": {"method": "Thus, the final concentration of Na citrate was about 50 mM. Three cGMP registration lots of the formulation, each in three hundred liter volume, were manufactured and stored at temperatures of 5° C., 25° C., 30° C., or 40° C. for long-term stability evaluation. Aliquots were taken from each lot at intervals and analyzed for potency and presence of related substances. In addition, the lots were visually inspected for appearance and the pH was also monitored.\nRelated substances (RS) were detected by HPLC."}, "[3]": {"test": "Formulation screening: storage stability, related substances by gradient HPLC (Examples 2-5)", "assay_type": "physicochemical", "details": "in the presence of 0.05% w/v Na2 EDTA versus none; up to thirty days", "method": "The stability of the active pharmaceutical ingredients was tested in acetate or citrate buffers. […] Chromatographic conditions for the related substances assay were as follows: (a) Detection wave length, UV 215 nm; (b) Column, Zorbax SB-C8, 5 μm, 4.6×250 mm; (c) Column temp, 30±1° C.; (d) Sample temp, Ambient; (e) Flow rate, 1.2 mL/min; (f) Injection volume, 20 μL; (g) Run Time, 30 minutes.\nF6 included 50 mM Na acetate buffer, pH 5.5; F7 included 50 mM Na citrate buffer, pH 5.5. […] Citric acid also has the ability to chelate divalent cations and can prevent oxidation, thus acting both as a buffering agent and an antioxidant.\nThe Stability of the Active Pharmaceutical Ingredients was Tested in Buffers with varying pH values. […] Data not shown. Both formulations included 50 mM Na citrate buffer. F8 pH was 6.5 and F9 pH was 5.5.\nThe stability of the active, pharmaceutical ingredients in liquid formulation was tested in the presence of N2 overlay and light protection. Two formulations, F10 and F11, were prepared and stored for up to 28 days under the conditions shown in FIG. 4A, i.e., with or without N2 overlay and light protection. […] F10 was prepared under protection from light and N2 overlay post-compounding and pre-filling of formulation into vials, while F11 was not.\nThe effect of antioxidants on stability of the active pharmaceutical ingredients in liquid formulation was tested. […]"}, "[4]": {"target": "non-human 5-HT1A, 5-HT1B and 5-HT1D receptors", "details": "range over non-human 5-HT1A; cited from earlier work"}, "5-HT1B/1D receptor": {"target": "5-HT1B/1D receptor", "details": "human saphenous vein; read-out: IC50 (functional agonist); cited from earlier work"}, "[5]": {"target": "human 5-HT1B and 5-HT1D receptors", "details": "range over human 5-HT1B and 5-HT1D receptors; cited from earlier work"}, "[6]": {"target": "α1A- and α2A-adrenoceptors", "details": "range over α1A- and α2A-adrenoceptors; cited from earlier work"}}, "note": "Where a name gives a salt, the structure may show the parent alone. Read-outs that look alike come from different tables or passages of the source.", "data": [{"smiles": "CC(C(=O)O)c1cccc(C(=O)c2ccccc2)c1", "note": "(stereo not drawn) [Ketoprofen, ketoprofen]", "values": [{"measurement": "IC50", "setting": "COX", "result": "4 to 8", "unit": "nM"}]}, {"smiles": "Cc1cc(C(C)(C)C)c(O)c(C)c1CC1=NCCN1", "note": "[Oxymetazoline HCl, oxymetazoline HCl]", "values": [{"measurement": "related substances of the named API", "setting": "[1]", "result": "less than 1%"}, {"measurement": "total RS %", "setting": "[2]; stored at 30° C. and 40° C.", "result": "increased significantly"}, {"measurement": "total RS %", "setting": "[2]; two years at 5° C.", "result": 0.00, "unit": "%"}, {"measurement": "total RS %", "setting": "[2]; two years at 25° C.", "result": "about 0.15%"}]}, {"smiles": "CN(C)CCC=C1c2ccccc2CCc2ccccc21", "note": "[amitriptyline HCl]", "values": [{"measurement": "related substances of the named API", "setting": "[1]", "result": "less than 5%"}, {"measurement": "chemical stability", "setting": "[3]", "result": "improved"}, {"measurement": "stability in the tested formulation", "setting": "[2]", "result": "stable"}, {"measurement": "RS presence", "setting": "[2]; 4° C.", "result": "present sporadically"}, {"measurement": "percentage of RS over time", "setting": "[2]; 25° C. and 30° C.", "result": "increased over the first three months, and then was stable for up to two years"}, {"measurement": "percentage of RS over time", "setting": "[2]; 40° C.", "result": "increased during the first month and then stabilized"}]}, {"smiles": "Cc1cc(C(C)(C)C)c(O)c(C)c1CC1=NCCN1", "note": "[oxymetazoline]", "values": [{"measurement": "IC50", "setting": "[4]", "result": "3 to 26", "unit": "nM"}, {"measurement": "IC50", "setting": "5-HT1B/1D receptor", "result": 30, "unit": "nM"}, {"measurement": "Ki", "setting": "[5]", "result": "0.3 to 0.4", "unit": "nM"}, {"measurement": "Ki", "setting": "[6]", "result": "3 to 6", "unit": "nM"}]}]}
